Measurements reported in patent publication US5268003A (priority 1992, dated 1993).

Key:
[1] = Bleaching of ink stained cotton in Terg-o-tometer, change in B-axis of Hunter color scale; settings: pH 9, 40° C., 10 ppm A.O., P-Surf base (1.5 g/l), 15 minutes; corrected for detergent control
Protocol: (§1) The bleaching performance of the peracids was evaluated against common stains such as tea (BC-1) and ink. Typically the cotton test pieces (3"×4") were stained with the appropriate stain and washed in a Terg-o-tometer for 15 minutes at 40° C. in a 500 mL aqueous wash solution. Dosage of the peracid was 10 ppm active oxygen.
Ink stain bleaching was measured as ΔB where the quantity ΔB is the change in the B-axis of the Hunter color scale. The ink stain is initially blue and loses color with bleaching thereby increasing the value of ΔB. Recorded ΔΔB values are ΔB values corrected for the cleaning accomplished by the detergent control.
(§2) Bleaching Results at 40° C., 10 ppm A.O., P-Surf base (1.5 g

[2] = heavy-duty liquid detergent, pH 4.5
[3] = Bleaching of tea (BC-1) stained cotton in Terg-o-tometer, reflectance change; settings: 10 ppm A.O.; for BC-1 ΔΔR pH 8: pH 8, 40° C.; for BC-1 ΔΔR pH 8 / BC-1 ΔΔR pH 9 / BC-1 ΔΔR pH 10: P-Surf base (1.5 g/l), 15 minutes, average of duplicates; for BC-1 ΔΔR pH 9: pH 9, 40° C.; for BC-1 ΔΔR pH 10: pH 10, 40° C.
Protocol: as §1
Stain bleaching was measured reflectometrically using a Colorgard System/05 Reflectometer. Bleaching was indicated by an increase in reflectance, reported as ΔΔR. In general a ΔΔR of one unit is perceivable in a paired comparison while ΔΔR of two units is perceivable monadically. In reporting the reflectance change, the change in reflectance caused by general detergency has been accounted for. Thus ΔΔR can actually be expressed as:
ΔΔR=ΔR peracid+detergent-ΔR detergent
where ΔR is the reflectance difference of the stained fabric after and before washing.
BC-1 experiments were run in duplicate and the value shown is an average. In order to ensure that the solids were as finely dispersed as possible, one of the BC-1 experiments of each pair was usually conducted by predissolving the peracid in 1 ml of DMF; if this value was within 1 unit of the experiment using finely ground peracid, the values were averaged.
as §2

SMILES	INK ΔΔB pH 9 [1]	t1/2 at 40° C. [2]	BC-1 ΔΔR pH 8 [3]	BC-1 ΔΔR pH 9 [3]	BC-1 ΔΔR pH 10 [3]	BC-1 ΔΔR pH 8 (DMF value in parenthesis) ([3]; pH 8, peracid predissolved in 1 ml of DMF, 40° C., P-Surf base)	BC-1 ΔΔR pH 9 (DMF value in parenthesis) ([3]; pH 9, peracid predissolved in 1 ml of DMF, 40° C., P-Surf base)
O=C(NCCCCNC(=O)c1ccc(C(=O)OO)cc1)c1ccc(C(=O)OO)cc1 [PCBBD, N,N'-Di(4-percarboxybenzoyl)-1,4-butanediamine]	28.9	15 days	9.5	9.4	6.0	–	–
O=C(OO)c1ccc(C(=O)N2CCN(C(=O)c3ccc(C(=O)OO)cc3)CC2)cc1 [PCBPIP, N,N'-Di(4-percarboxybenzoyl)piperazine]	9.7	79 days	3.0	2.9	3.1	–	–
O=C(NCCNC(=O)c1ccc(C(=O)OO)cc1)c1ccc(C(=O)OO)cc1 [PCBED, N,N'-Di(4-Percarboxybenzoyl)ethylenediamine]	19.1	–	10.6	9.0	5.9	–	–
O=C(N[C@H]1CC[C@H](NC(=O)c2ccc(C(=O)OO)cc2)CC1)c1ccc(C(=O)OO)cc1 [PCBHEX, N,N'-Di(4-percarboxybenzoyl)-1,4-diaminocyclohexane]	4.2	–	0.9	2.1	3.1	–	–
O=C(Nc1ccc(C(=O)OO)cc1)c1ccc(C(=O)Nc2ccc(C(=O)OO)cc2)cc1 [DPCAT, N,N'-Di(4-Percarboxyaniline)terephthalate]	3.1	65 days	1.6	1.5	2.3	–	–
O=C(CCC(=O)Nc1ccc(C(=O)OO)cc1)Nc1ccc(C(=O)OO)cc1 [SDPCA, N,N'-Succinoyl-di(4-percarboxy)aniline]	16.8	43 days	2.7	3.3	5.0	–	–
O=C(CCCCCN1C(=O)c2ccccc2C1=O)OO [PAP, N-phthaloylamino peroxycaproic acid, reference compound]	–	3 days	–	–	–	–	–
O=C(CCCCC(=O)OO)Nc1ccc(NC(=O)CCCCC(=O)OO)cc1 [DPAPD, N,N'-Di(percarboxyadipoyl)phenylenediamine]	8.0	32 days	7.1	6.7	4.0	–	–
O=C(Nc1ccccc1NC(=O)c1ccc(C(=O)OO)cc1)c1ccc(C(=O)OO)cc1 [1,2-PCBPD, N,N'-Di(4-percarboxybenzoyl)-1,2-phenylenediamine]	24.9	33 days	4.4	4.1	3.9	8.1	6.5
